In patent US6342501B1, “Pyrrolo[2,3-d] pyrimidines as antiviral agents” (The Regents of the University of Michigan, priority 1994, dated 2002):
Where two headings read alike, the source gives them in different places.

Columns and labels:
[1] = test system: human foreskin fibroblasts (HFF cells); assay: Cytotoxicity in stationary HFF cells (microscopic inspection of plaque assay cells); assay type: cell-based; conditions: read-out: HFF
Experimental: (§1) Two different assays were used to explore cytotoxicity of selected compounds: (i) Cytotoxicity produced in stationary HFF cells was determined by microscopic inspection of cells used in plaque assays which were not affected by the virus [Turk, S. R., et al, Antimicrob.
(§2) Dose-response relationships were constructed by linearly regressing the percent inhibition of parameters derived in the preceding sections against logarithm 10 drug concentrations. […] Samples containing positive controls (acyclovir for HSV-1 and ganciclovir for HCMV) were used in all assays.

[2] = test system: herpes simplex virus type 1 (HSV-1); assay: HSV-1 ELISA in BSC-1 cells; assay type: cell-based, KOS strain; conditions: read-out: HSV-1
Experimental: (§3) The routine growth and passage of KB and BSC-1 cells was performed in monolayer cultures using minimal essential medium (MEM) with either Hanks salts [MEM(H)] or Earle salts [MEM(E)] supplemented with 10% calf serum. The sodium bicarbonate concentration was varied to meet the buffering capacity required. Cultures of diploid human foreskin fibroblast (HFF) or MRC-5 cells were grown in medium consisting of MEM(E) with 10% fetal bovine serum. Cells were passaged at 1:2 to 1:10 dilutions according to conventional procedures by using 0.05% trypsin plus 0.02% EDTA in a HEPES buffered salt solution (HBS) [Shipman, C., Jr., Proc. Soc. […] HFF and MRC-5 cells were passaged only at 1:2 dilutions. The Towne strain, plaque-purified isolate Po, of HCMV was kindly provided by Dr. Mark Stinski, University of Iowa. The KOS strain of HSV-1 was used in most experiments and was provided by Dr. Sandra K. Weller, University of Conn.
High titer HSV-1 stocks were prepared by infecting BSC cells at an m.o.i. of <0.1 as detailed previously [Turk, S. R., et al., Antimicrob.
Ninety-six-well cluster dishes were planted with 10,000 BSC-1 cells per well in 200 μL per well of MEM(E) plus 10% calf serum. After overnight incubation at 37° C., selected drug concentrations in quadruplicate and HSV-1 at a concentration of 100 p.f.u./well were added. Following a 3-day incubation at 37° C., medium was removed, plates were blocked, rinsed, and horse radish peroxidase conjugated rabbit anti-HSV-1 antibody was added. Following removal of the antibody containing solution, plates were rinsed, and then developed by adding 150 μL per well of a solution of tetramethylbenzidine as substrate. The reaction was stopped with H2SO4 and absorbance was read at 450 and 570 nm. Drug effects were calculated as a percentage of the reduction in absorbance in the presence of each drug concentration compared to absorbance obtained with virus in the absence of drug.
as §2

[3] = test system: KB cells; assay: Cytotoxicity: KB cell growth (crystal violet staining); assay type: cell-based; conditions: Homo sapiens, read-out: KBgrv
Experimental: as §1
Briefly, 96-well cluster dishes were planted with KB cells at 3000-5000 cells per well. After overnight incubation at 37° C., test compound was added in quadruplicate at six to eight concentrations. Plates were incubated at 37° C for 48 hours in a CO2 incubator, rinsed, fixed with 95% ethanol, and stained with 0.1% crystal violet. Acidified ethanol was added and plates read at 570 nm in a spectrophotometer designed to read 96-well ELISA assay plates.
as §2

[4] = test system: human cytomegalovirus (HCMV); assay: microbe, parasite or virus in culture; assay type: cell-based, Towne strain; conditions: for IC50: Human betaherpesvirus 5, HFF, read-out: HCMV; for antiviral activity against HCMV (in words): comment on Table 1 data
Experimental: as §3
Stock HCMV was prepared by infecting HFF cells at a multiplicity of infection (m.o.i.) of <0.01 plaque-forming units (p.f.u.) per cell. Cell growth medium was changed every four days until cytopathology was evident in all cells (approximately 21 days). Supernatant fluids were retained as the virus stock.
Virus titers were determined using monolayer cultures of HFF cells for HCMV and monolayer cultures of BSC-1 cells for HSV-1 as described earlier [Prichard, M. N., et al., J. Virol. […] Briefly, HFF or BSC-1 cells were planted as described above in 96-well cluster dishes and incubated overnight at 37. degree. C. in a humidified 3% C02 -97% air atmosphere. The next day cultures were inoculated with HCMV or HSV-1 and serially diluted 1:3 across the remaining eleven columns of the 96-well plate. Cultures were incubated at 37. degree. C. for 2 hr to permit virus adsorption and then virus inoculum was replaced with 0.2 ml of fresh medium. Cultures were incubated for seven days for HCMV, two or three days for HSV-1, the medium was removed, and the cell sheets were stained with 0.1% crystal violet in 20% methanol.
HFF cells in 24-well cluster dishes were infected with approximately 100 p.f.u. of HCMV per cm^2 cell sheet using the procedures detailed above. Following virus adsorption, compounds dissolved in growth medium were added to duplicate wells in four to eight selected concentrations. After incubation at 37° C. for 7 to 10 days, cell sheets were fixed, stained with crystal violet and microscopic plaques enumerated as described above.
After virus adsorption, inoculum was replaced with 0.2 mL of fresh medium containing test compounds. The first row of 12 wells was left undisturbed and served as virus controls. Each well in the second row received an additional 0.1 mL of medium with test compound at three times the desired final concentration. The contents of the 12 wells were mixed by repeated pipetting and then serially diluted 1:3 along the remaining wells. In this manner, six compounds could be tested in duplicate on a single plate with concentrations from […]. Plates were incubated at 37° C. for seven days, subjected to one cycle of freezing and thawing; aliquots from each of the eight wells of a given column were transferred to the first column of a fresh 96-well monolayer culture of HFF cells. Contents were mixed and serially diluted 1:3 across the remaining eleven columns of the secondary plate. Each column of the original primary plate was diluted across a separate plate in this manner. Cultures were incubated, plaques were enumerated, and titers calculated as described above.
as §2

[5] = Human alphaherpesvirus 1, BSC-1, 72 h
[6] = Table 1, cytotoxicity, stationary HFF cells, visual
[7] = Human alphaherpesvirus 1, 72 h, Table 1, fifty-percent inhibitory concentration, ELISA, BSC-1 cells, 3-day incubation
[8] = Table 1, cytotoxicity, KB cell growth, 48 hours

Row | Compound | IC50 ([1]; HFF) [µM] | IC50 [2, 5] [µM] | IC50 ([3]; KB, 48 h) [µM] | IC50 [4] [µM] | IC50 [1, 6] [µM] | IC50 [2, 7] [µM] | IC50 [3, 8] [µM] | antiviral activity against HCMV (in words) [4]
1 | NC(=O)c1cn(Cc2cccc([N+](=O)[O-])c2)c2ncnc(N)c12 [Compound 1421, 4-amino-7-(3-nitrobenzyl)-pyrrolo[2,3-d]pyrimidine-5-carboxamide] | > 100 | > 100 | > 100 | 42 |  |  |  | 
2 | N#Cc1c(N)n(Cc2ccc(N)cc2)c2ncnc(N)c12 [Compound 1352, 4,6-diamino-7-(4-aminobenzyl)-pyrrolo[2,3-d]pyrimidine-5-carbonitrile] |  |  |  | > 100 | > 100 | 100 | 146 | good to excellent antiviral activity
3 | Cc1ccc(Cn2cc(C(N)=O)c3c(N)ncnc32)cc1 [Compound 658, 4-amino-7-(4-methylbenzyl)-pyrrolo [2,3-d]pyrimidine-5-carboxamide] | 141 | > 100 | ≥ 222 | 181 |  |  |  | 
4 | NC(=S)c1cn(CCCc2ccccc2)c2ncnc(N)c12 [Compound 1413, 4-amino-7-(3-phenyl)propyl-pyrrolo[2,3-d]pyrimidine-5-thiocarboxamide] |  |  |  | 0.5 | 32 | 1.5 | 38 | excellent activity
5 | N#Cc1cn(Cc2ccc(Cl)cc2)c2ncnc(N)c12 [Compound 1444, 4-amino-7-(4-chlorobenzyl)-pyrrolo[2,3-d]pyrimidine-5-carbonitrile] |  |  |  | 0.8 | > 10 | 85 | > 100 | good to excellent antiviral activity
6 | N#Cc1c(N)n(Cc2cccc(N)c2)c2ncnc(N)c12 [Compound 1455, 4,6-diamino-7-(3-aminobenzyl)-pyrrolo[2,3-d]pyrimidine-5-carbonitrile] |  |  |  | 6.5 | > 100 | > 100 | 40 | Some activity
7 | N#Cc1c(N)n(Cc2cccc([N+](=O)[O-])c2)c2ncnc(N)c12 [Compound 1425, 4,6-diamino-7-(3-nitrobenzyl)-pyrrolo[2,3-d]pyrimidine-5-carbonitrile] |  |  |  | 5 | > 100 | > 100 | > 100 | Some activity
8 | N#Cc1c(Br)n(CCCc2ccccc2)c2ncnc(N)c12 [Compound 1347, 4-amino-6-bromo-7-(3-phenyl)propyl-pyrrolo[2,3-d]pyrimidine-5-carbonitrile] |  |  |  | > 10 | > 10 | ≥ 222 | > 100 | 
9 | NC(=O)c1cn(CCc2ccccc2)c2ncnc(N)c12 [Compound 1396, 4-amino-7-(2-phenyl)ethyl-pyrrolo[2,3-d]pyrimidine-5-carboxamide] |  |  |  | 17 | > 100 | 45 | 40 | 
10 | N#Cc1c(Br)n(CCc2ccccc2)c2ncnc(N)c12 [Compound 1351, 4-amino-6-bromo-7-(2-phenyl)ethyl-pyrrolo[2,3-d]pyrimidine-5-carbonitrile] |  |  |  | 1 | > 100 | ≥ 222 | > 100 | excellent activity
11 | NC(=O)c1cn(CCCc2ccccc2)c2ncnc(N)c12 [Compound 1376, 4-amino-7-(3-phenyl)propyl-pyrrolo[2,3-d]pyrimidine-5-carboxamide] |  |  |  | 28 | 100 | 35 | 70 | 
12 | N#Cc1c(Br)n(Cc2ccc(F)cc2)c2ncnc(N)c12 [Compound 1353, 4-amino-6-bromo-7-(4-flurobenzyl)-pyrrolo[2,3-d]pyrimidine-5-carbonitrile] |  |  |  | 1.4 | 116 | 60 | > 100 | 
13 | Cc1ccc(Cn2c(Br)c(C(N)=O)c3c(N)ncnc32)cc1 [Compound 1427, 4-amino-6-bromo-7-(4-methylbenzyl)-pyrrolo[2,3-d]pyrimidine-5-carboxamide] | > 10 | > 100 | > 100 | > 10 |  |  |  | 
14 | N#Cc1c(N)n(CCc2ccccc2)c2ncnc(N)c12 [Compound 1369, 4,6-diamino-7-(2-phenyl)ethyl-pyrrolo[2,3-d]pyrimidine-5-carbonitrile] |  |  |  | < 0.1 | 100 | 0.3 | 82 | excellent activity
15 | N#Cc1cn(Cc2ccc([N+](=O)[O-])cc2)c2ncnc(N)c12 [Compound 1360, 4-amino-7-(4-nitrobenzyl)-pyrrolo[2,3-d]pyrimidine-5-carbonitrile] |  |  |  | 1.6 | > 10 | > 100 | > 100 | good to excellent antiviral activity
16 | N#Cc1c(Br)n(Cc2cccc(Cl)c2)c2ncnc(N)c12 [Compound 1461, 4-amino-6-bromo-7-(3-chlorobenzyl)-pyrrolo[2,3-d]pyrimidine-5-carbonitrile] |  |  |  | > 100 | > 100 | > 100 | > 100 | 
17 | NC(=O)c1c(Br)n(CCc2ccccc2)c2ncnc(N)c12 [Compound 1409, 4-amino-6-bromo-7-(2-phenyl)ethyl-pyrrolo[2,3-d]pyrimidine-5-carboxamide] |  |  |  | 100 | > 100 | > 100 | > 100 | lost
18 | COc1ccc(Cn2cc(C(N)=O)c3c(N)ncnc32)cc1 [Compound 839, 4-amino-7-(4-methoxybenzyl)-pyrrolo[2,3-d]pyrimidine-5-carboxamide] | 127 | 35 | 47 | 13 |  |  |  | good to excellent antiviral activity
19 | NC(=O)c1cn(Cc2ccc([N+](=O)[O-])cc2)c2ncnc(N)c12 [Compound 1412, 4-amino-7-(4-nitrobenzyl)-pyrrolo[2,3-d]pyrimidine-5-carboxamide] | 100 | 45 | > 100 | 5 |  |  |  | good to excellent antiviral activity
